Activity calls are given as the source filed them. The rule behind the calls is not given here.
Key:
[1] = Antioxidant activity assessed as DPPH radical scavenging activity at 200 uM measured after 30 mins relative to control; type: functional
[2] = Antioxidant activity assessed as DPPH radical scavenging activity at 100 uM measured after 30 mins relative to control; type: functional
[3] = Antioxidant activity assessed as DPPH radical scavenging activity at 50 uM measured after 30 mins relative to control; type: functional
Liver [4] = test: Antioxidant activity in rat hepatic microsomes assessed as inhibition of FeSO4-induced lipid peroxidation measured after 45 mins by spectrophotometry; type: functional, microsome; conditions: 0.75 h
Rattus norvegicus [5] = test: Anti-inflammatory activity in rat assessed as reduction in carrageenan-induced hind paw oedema at 0.15 mmol/kg, ip pretreated for 5 mins followed by carrageenan challenge measured after 3.5 hrs; type: functional; set-up: scale not given: the % may be the effect or the level left
Lipoxygenase = Lipoxygenase (Glycine max, UniProt Q39829); test: Inhibition of soybean lipoxygenase using sodium linoleate as substrate measured after 7 mins
Rattus norvegicus [6] = test: Hypolipidemic activity in triton WR1339-induced rat model of hyperlipidemia assessed as reduction in plasma total cholesterol level at 150 umol/kg, ip administered after 1 hr post triton WR1339 challenge measured after 24 hrs relative to control; type: functional; set-up: scale not given: the % may be the effect or the level left
Rattus norvegicus [7] = test: Hypolipidemic activity in triton WR1339-induced rat model of hyperlipidemia assessed as reduction in plasma total triglyceride level at 150 umol/kg, ip administered after 1 hr post triton WR1339 challenge measured after 24 hrs relative to control; type: functional; set-up: scale not given: the % may be the effect or the level left
Rattus norvegicus [8] = test: Protection against paracetamol-induced liver injury in rat assessed as reduction in plasma GPT level at 1 mmol/kg, po measured at 24 hrs post paracetamol challenge relative to control; type: functional; set-up: scale not given: the % may be the effect or the level left
Rattus norvegicus [9] = test: Protection against paracetamol-induced liver injury in rat assessed as reduction in plasma GOT level at 1 mmol/kg, po measured at 24 hrs post paracetamol challenge relative to control; type: functional; set-up: scale not given: the % may be the effect or the level left
Rattus norvegicus [10] = test: Protection against paracetamol-induced liver injury in rat assessed as reduction in plasma LDH level at 1 mmol/kg, po measured at 24 hrs post paracetamol challenge relative to control; type: functional; set-up: scale not given: the % may be the effect or the level left
Liver [11] = test: Potency index, ratio of trolox IC50 to test compound IC50 for inhibition FeSO4-induced lipid peroxidation in rat hepatic microsomes; type: functional; conditions: microsome
[12] = Antioxidant activity assessed as DPPH radical scavenging activity at 25 to 200 uM measured after 30 mins; type: functional
Liver [13] = test: Antioxidant activity in rat hepatic microsomes assessed as inhibition of FeSO4-induced lipid peroxidation at 1 to 1000 uM measured after 45 mins by spectrophotometry; type: functional; conditions: microsome
Mus musculus = test: Anti-inflammatory activity in Balb/C mouse assessed as reduction in carrageenan-induced hind paw oedema at 0.15 mmol/kg, ip pretreated for 1 hr followed by carrageenan challenge; type: functional; set-up: scale not given: the % may be the effect or the level left

| SMILES | Activity [1] | Activity [2] | Activity [3] | IC50 (Liver [4]) | Activity (Rattus norvegicus [5]) | inhibition (Liver [13]) | further results |
| --- | --- | --- | --- | --- | --- | --- | --- |
| CCOC(=O)C(CS)NC(=O)/C=C/c1cc(C(C)(C)C)c(O)c(C(C)(C)C)c1 (stereo unspecified) | 96% | 70% | 37% | 40 µM | 61% | – | IC50 (Lipoxygenase): 135 µM |
| CCOC(=O)C(CS)NC(=O)C1(C)CCc2c(C)c(O)c(C)c(C)c2O1 (stereo unspecified) | 93% | 91% | 61% | 3 µM | 39% | – | Activity (Rattus norvegicus [6]): 73%; Activity (Rattus norvegicus [7]): 72.3%; Activity (Rattus norvegicus [8]): 64%; Activity (Rattus norvegicus [9]): 70%; Activity (Rattus norvegicus [10]): 78%; Ratio IC50 (Liver [11]): 10 |
| CCOC(=O)C(CS)NC(=O)c1cc(C(C)(C)C)c(O)c(C(C)(C)C)c1 (stereo unspecified) | 85% | 46% | 23% | 200 µM | 59% | – | IC50 (Lipoxygenase): 67 µM |
| CCOC(=O)C(CSSCC(NC(=O)/C=C/c1ccccc1)C(=O)OCC)NC(=O)/C=C/c1ccccc1 (stereo unspecified) | – | – | – | – | – | inactive | Activity [12]: Active |
| O=C(/C=C/c1ccccc1)NCCS | 86% | 59% | 31% | – | 38% | inactive | – |
| CC(C)Cc1ccc(C(C)C(=O)O)cc1 (stereo unspecified) [IBUPROFEN] | – | – | – | – | 36% | – | – |
| CCOC(=O)C(CSSCC(NC(=O)c1cc(C(C)(C)C)c(O)c(C(C)(C)C)c1)C(=O)OCC)NC(=O)c1cc(C(C)(C)C)c(O)c(C(C)(C)C)c1 (stereo unspecified) | – | – | – | – | 36% | inactive | Activity [12]: Active |
| CC(C)(C)c1cc(C(=O)NCCSSCCNC(=O)c2cc(C(C)(C)C)c(O)c(C(C)(C)C)c2)cc(C(C)(C)C)c1O | – | – | – | – | – | inactive | Activity [12]: Active |
| CCOC(=O)[C@@H](N)CS | – | – | – | – | – | – | Activity (Mus musculus): 25% |
| CC(C)(C)c1cc(C(=O)O)cc(C(C)(C)C)c1O | – | – | – | 250 µM | – | – | – |
| CC(C)(C)c1cc(/C=C/C(=O)NCCS)cc(C(C)(C)C)c1O | 92% | 60% | 34% | 30 µM | 67% | – | IC50 (Lipoxygenase): 160 µM |
| CC(C)(C)c1cc(C(=O)NCCS)cc(C(C)(C)C)c1O | 85% | 45% | 20% | 45 µM | 87% | – | IC50 (Lipoxygenase): 121 µM |
| CCOC(=O)C(CS)NC(=O)/C=C/c1ccccc1 (stereo unspecified) | 86% | 42% | 27% | – | 35% | inactive | – |
| Cc1c(C)c2c(c(C)c1O)CCC(C)(C(=O)O)O2 (stereo unspecified) [TROLOX] | – | – | – | 25 µM | – | – | – |
| O=C(/C=C/c1ccccc1)NCCSSCCNC(=O)/C=C/c1ccccc1 | – | – | – | – | 42% | inactive | Activity [12]: Active |
| NCCS [CYSTEAMINE] | – | – | – | – | – | – | Activity (Mus musculus): 15% |
| Cc1c(C)c2c(c(C)c1O)CCC(C)(C(=O)NCCS)O2 (stereo unspecified) | 93% | 92% | 61% | 1.6 µM | 67% | – | Activity (Rattus norvegicus [6]): 67.1%; Activity (Rattus norvegicus [7]): 47.3%; Activity (Rattus norvegicus [8]): 15%; Activity (Rattus norvegicus [9]): 26%; Activity (Rattus norvegicus [10]): 70%; Ratio IC50 (Liver [11]): 10 |

Source: ChEMBL document CHEMBL4177601, “Dual antioxidant structures with potent anti-inflammatory, hypolipidemic and cytoprotective properties” (Bioorg Med Chem Lett, 2017)
